Experimental data reported in patent US9598424B2 (Takeda Pharmaceutical Company Limited, priority 2014, dated 2017).

Columns and labels:
Full length human TBK1 = target: T1, Full length human TBK1 (Homo sapiens, UniProt Q9UHD2); test: Inhibition of TBK1 Enzyme (Caliper microfluidic assay); assay type: biochemical; settings: 25 μM ATP, 60 min at RT; -log(IC50), IC50 molar; read-out: TBK1 Inhibition (pIC50) (converted)
T1 construct: Full length human TBK1 with an N-terminal His-tag; His-tag (N); made in house; host or cells: Sf9 insect cells (baculovirus, pFastBac1)
T1 sequence (Q9UHD2 1-729): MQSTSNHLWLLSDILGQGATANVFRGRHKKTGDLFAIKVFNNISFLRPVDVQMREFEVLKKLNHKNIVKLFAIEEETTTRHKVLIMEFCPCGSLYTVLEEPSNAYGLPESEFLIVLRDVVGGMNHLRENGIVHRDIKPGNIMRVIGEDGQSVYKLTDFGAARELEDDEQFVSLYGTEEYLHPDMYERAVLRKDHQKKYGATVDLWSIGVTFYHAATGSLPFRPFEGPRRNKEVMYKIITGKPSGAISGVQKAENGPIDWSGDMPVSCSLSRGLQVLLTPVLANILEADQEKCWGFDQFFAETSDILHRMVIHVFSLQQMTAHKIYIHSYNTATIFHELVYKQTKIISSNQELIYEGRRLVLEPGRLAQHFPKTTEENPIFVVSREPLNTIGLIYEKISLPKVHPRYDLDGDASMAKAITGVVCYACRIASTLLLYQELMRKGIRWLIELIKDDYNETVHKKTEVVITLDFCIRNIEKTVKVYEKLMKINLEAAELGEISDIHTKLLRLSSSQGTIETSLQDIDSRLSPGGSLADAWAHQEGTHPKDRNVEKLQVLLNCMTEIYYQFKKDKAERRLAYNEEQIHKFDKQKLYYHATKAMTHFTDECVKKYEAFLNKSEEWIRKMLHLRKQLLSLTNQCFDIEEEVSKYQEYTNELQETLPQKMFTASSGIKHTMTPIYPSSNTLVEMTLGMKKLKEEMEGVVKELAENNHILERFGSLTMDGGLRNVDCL
Summary of the method: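 Enzyme: His-tagged full-length TBK1 expressed in Sf9. Reaction 60 min at RT in 20 mM Hepes pH 7.4, 10 mM MgCl2, 1 mM EDTA, 0.01% Brij-L23, 1 mM DTT, with 5FAM-peptide (added at 1 μM) and TBK1/ATP mix (added at 3 nM/25 μM), then EDTA-quenched. Conversion measured by microfluidic separation; 11-point 2.5-fold series fit to pIC50.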

TBK1 = target: T2, TBK1 (Homo sapiens, UniProt Q9UHD2); test: Inhibition of TBK1 in Cells (TLR3 driven ISRE β-lactamase reporter assay); assay type: cell-based; settings: poly IC-LMW stimulation 16 hrs; -log(EC50), EC50 molar; read-out: Inhibition of TBK1 in cells pEC50 (EC) (converted)
T2 construct: host or cells: RA1-ISRE beta-lactamase reporter cells
T2 sequence (Q9UHD2 1-729): T1 sequence (Q9UHD2 1-729)
Summary of the method: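 RA1-ISRE β-lactamase reporter cells (50,000/well) treated with 11-point 2.5-fold compound dilutions and stimulated with 0.15 mg/ml poly IC-LMW for 16 hrs. Reporter read by CCF4-AM FRET; EC50 from non-linear fit of percent inhibition, reported as pEC50 (molar).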

Row | IC50 (Full length human TBK1) [nM] | EC50 (TBK1) [nM] | Structure (SMILES)
1 | 63.1 | 2750 | O=C(Nc1cn2cc(-c3cc(C(=O)N4CCC(F)C4)[nH]n3)ccc2n1)C1CC1 (centres unmarked) [Example 107, N-(6-(5-(3-fluoropyrrolidine-1-carbonyl)-1H-pyrazol-3-yl)imidazo[1,2-a]pyridin-2-yl)cyclopropanecarboxamide]
2 | 79.4 | 4370 | O=C(N[C@H]1COC[C@H]1O)c1nc(-c2ccc3nc(NC(=O)C4CC4)cn3c2)cs1 [Example 108, 4-(2-(cyclopropanecarboxamido)imidazo[1,2-a]pyridin-6-yl)-N-((3S,4S)-4-hydroxytetrahydrofuran-3-yl)thiazole-2-carboxamide]
3 | 63.1 | 3240 | O=C(NC1COCC1O)c1nc(-c2ccc3nc(NC(=O)C4CC4)cn3c2)cs1 (centres unmarked) [Example 109, 4-(2-(cyclopropanecarboxamido)imidazo[1,2-a]pyridin-6-yl)-N-(4-hydroxytetrahydrofuran-3-yl)thiazole-2-carboxamide]
4 | 79.4 | 4370 | O=C(Nc1cn2cc(-c3csc(C(=O)N4CCC(O)C4)n3)ccc2n1)C1CC1 (centres unmarked) [Example 112, N-(6-(2-(3-hydroxypyrrolidine-1-carbonyl)thiazol-4-yl)imidazo[1,2-a]pyridin-2-yl)cyclopropanecarboxamide]
5 | 126 | 2690 | O=C(Nc1cn2cc(-c3csc(C(=O)N4CC(O)C4)n3)ccc2n1)C1CC1 [Example 113, N-(6-(2-(3-hydroxyazetidine-1-carbonyl)thiazol-4-yl)imidazo[1,2-a]pyridin-2-yl)cyclopropanecarboxamide]
6 | 158 | 1620 | O=C(Nc1cn2cc(-c3csc(C(=O)N4CCCC4CO)n3)ccc2n1)C1CC1 (centres unmarked) [Example 114, N-(6-(2-(2-(hydroxymethyl)pyrrolidine-1-carbonyl)thiazol-4-yl)imidazo[1,2-a]pyridin-2-yl)cyclopropanecarboxamide]
7 | 79.4 | 1510 | O=C(NCC(O)C(F)(F)F)c1nc(-c2ccc3nc(NC(=O)C4CC4)cn3c2)cs1 (centres unmarked) [Example 115, 4-(2-(cyclopropanecarboxamido)imidazo[1,2-a]pyridin-6-yl)-N-(3,3,3-trifluoro-2-hydroxypropyl)thiazole-2-carboxamide]
8 | 200 | 3020 | O=C(Nc1cn2cc(-c3cc(C(=O)N4CCCC4)[nH]n3)ccc2n1)C1CC1 [Example 116]
9 | 50.1 | 6460 | CC(C)C(NC(=O)c1cc(-c2ccc3nc(NC(=O)C4CC4)cn3c2)cs1)C(F)(F)F (centres unmarked) [Example 117, 4-(2-(cyclopropanecarboxamido)imidazo[1,2-a]pyridin-6-yl)-N-(1,1,1-trifluoro-3-methylbutan-2-yl)thiophene-2-carboxamide]
10 | 31.6 | 676 | O=C(NC1(C(F)(F)F)CC1)c1cc(-c2ccc3nc(NC(=O)C4CC4)cn3c2)cs1 [Example 118, 4-(2-(cyclopropanecarboxamido)imidazo[1,2-a]pyridin-6-yl)-N-(1-(trifluoromethyl)cyclopropyl)thiophene-2-carboxamide]
11 | 10 | 331 | O=C(Nc1cn2cc(-c3csc(C(=O)N(CCCO)CC(F)(F)F)c3)ccc2n1)C1CC1 [Example 119, 4-(2-(cyclopropanecarboxamido)imidazo[1,2-a]pyridin-6-yl)-N-(3-hydroxypropyl)-N-(2,2,2-trifluoroethyl)thiophene-2-carboxamide]
12 | 158 | 851 | O=C(Nc1cn2cc(-c3csc(C(=O)N(CCO)CC(F)(F)F)c3)ccc2n1)C1CC1 [Example 120, 4-(2-(cyclopropanecarboxamido)imidazo[1,2-a]pyridin-6-yl)-N-(2-hydroxyethyl)-N-(2,2,2-trifluoroethyl)thiophene-2-carboxamide]
13 | 39.8 | 1120 | COCCN(CC(F)F)C(=O)c1cc(-c2ccc3nc(NC(=O)C4CC4)cn3c2)cs1 [Example 121, 4-(2-(cyclopropanecarboxamido)imidazo[1,2-a]pyridin-6-yl)-N-(2,2-difluoroethyl)-N-(2-methoxyethyl)thiophene-2-carboxamide]
